Reference: PubChem BioAssay AID2061108 (Research group of Professor Matthew Todd, School of …, 2025)
The source made the active and inactive calls. The rule behind the calls is not given here.

How the values were obtained:
Assay in all cases: antibacterial and antifungal growth inhibition panel, profiling panel, Idler compounds, first plate, PMBN-permeabilized strains (AID 2061108)
Parameters in all cases: haemolysis: dose or concentration left out as unconfirmed
[1] = tested on: S. aureus ATCC 9144 growth inhibition, 100 uM; conditions: S. aureus ATCC 9144 growth inhibition; at 100 µM; stronger effect = higher value
[2] = tested on: A. baumannii ATCC 17978 growth inhibition, 100 uM; conditions: S. aureus ATCC 9144 growth inhibition; measured here: A. baumannii ATCC 17978; at 100 µM; stronger effect = higher value
[3] = tested on: red blood cell haemolysis; conditions: stronger effect = higher value; dose or concentration not given here
[4] = tested on: E. coli NCTC 12923 growth inhibition, 100 uM; conditions: E. coli NCTC 12923 growth inhibition, 100 µM; stronger effect = higher value
[5] = tested on: C. albicans NCPF 3281 growth inhibition, 100 uM; conditions: S. aureus ATCC 9144 growth inhibition; measured here: C. albicans NCPF 3281; at 100 µM; stronger effect = higher value
[6] = tested on: M. abscessus growth inhibition, 10 uM; conditions: S. aureus ATCC 9144 growth inhibition; measured here: M. abscessus; at 10 µM
[7] = tested on: E. coli NCTC 12923 + PMBN growth inhibition, 100 uM; conditions: S. aureus ATCC 9144 growth inhibition; measured here: E. coli plus PMBN; at 100 µM; stronger effect = higher value
[8] = tested on: M. avium growth inhibition, 10 uM; conditions: M. avium growth inhibition, 10 µM
[9] = tested on: A. baumannii ATCC 17978 + PMBN growth inhibition, 100 uM; conditions: A. baumannii plus PMBN growth inhibition, 100 µM; stronger effect = higher value

Compound | inhibition [1] | inhibition [2] [%] | haemolysis [3] [%] | inhibition [4] [%] | inhibition [5] [%] | inhibition [6] [%] | inhibition [7] [%] | inhibition [8] [%] | inhibition [9] [%]
C=CC(=O)N1CCCc2c(C(=O)O)cccc21 | 17% (inactive) | -1.2 | 0.129 | -5.27 | -51.3 | -0.114 | -5.12 | 0.285 | 18.6
NC(=O)CSc1nnc(COc2ccccc2)n1-c1ccccc1 | 15.3% (inactive) | 0.843 | 0.123 | -3.24 | -39.3 | 0.484 | 2.8 | 0.364 | 23.4
O=C(Nc1nnc2ccccn12)c1ccc2cccc(Cl)c2n1 | -41.5% (inactive) | -14.5 | 2.79 | -51.6 | 25.9 | -0.577 | -43.8 | -0.879 | -14.2
COc1cc(OC)cc(C2(NC(=O)c3ccc(N4CCOCC4)cc3)COC2)c1 | 11.7% (inactive) | 2.38 | -0.148 | 0.541 | -72 | -0.558 | 0.123 | -0.0617 | 19.4
O=C(Nc1ccccc1)C(Cl)C(=O)c1ccccc1 (stereo not given) | 100% | 37.9 | -0.111 | 20.3 | 101 | -1.14 | 61.4 | 1.66 | 98.6
